The nature of data set [1]: Water solubility of dicarboxylic acid agents. The class given is physicochemical. The text has this: (§1) Two different dicarboxylic particles were used in the Examples herein. […] LCA141 is dodecanedioic acid (DDDA) (Agent B in U.S. Pat. No. 6,994,166), also from INVISTA.
The nature of data set [2]: Solubility of dicarboxylic acid agents in various solvents. The class given is physicochemical. The conditions noted are these: 183° F. (84° C.).
From the text: as §1

Molecules are shown by their SMILES.

For the compound `O=C(O)CCCCCCCCCCC(=O)O` [LCA141, dodecanedioic acid], the Water solubility entry was “Very low (70° F. (21° C.))” in data set [1] (70° F. (21° C.)), 0.012% (140° F. (60° C.)) in data set [1] (140° F. (60° C.)), 0.01% (176° F. (80° C.)) in data set [1] (176° F. (80° C.)) and 0.04% (212° F. (100° C.)) in data set [1] (212° F. (100° C.)). Moreover, the “Solubility, %” value in data set [2] (Blend C (50:50 v/v isopropanol and oxyalkylated alcohol mixture)) is listed as 6.99 (183° F. (84° C.)) %; in data set [2] (Ethylene glycol monobutyl ether (EGMBE)), 5.89 (183° F. (84° C.)) %; in data set [2] (Isopropanol), >9.73 (183° F. (84° C.)) %.

The values are drawn from US8653012B2, “Mutual solvent-soluble and/or alcohol blends-soluble particles for viscoelastic surfactant fluids” (Baker Hughes Incorporated, priority 2008, dated 2014).
